The source of these data is PMC12263422, “Cryo-EM structure of the human THIK-1 K2P K^+ channel reveals a lower Y gate regulated by lipids and anesthetics” (Nature Structural & Molecular Biology, 2025).

Type in all cases: cell-based
The target of test [1] is T1, THIK-1 F142A (Homo sapiens, UniProt Q9HB14, F142A).
T1 construct: expressed in transfected cells; host or cells: Xenopus oocytes (mRNA injection)
Description: Inside-out excised patch recordings, oocytes, THIK-1 F142A mutant. Conditions: read-out: TPenA IC50. An excerpt:
Supplement 41594_2025_1497_MOESM2_ESM.xlsx, sheet "ExtData_Fig_S2c" | column: Normalized currents

In test [2] the target is T2, THIK-1 Y273A/I139A (Homo sapiens, UniProt Q9HB14, I139A/Y273A).
T2 construct: expressed in transfected cells; host or cells: Xenopus oocytes (mRNA injection)
T2 sequence (Q9HB14 1-408 I139A/Y273A): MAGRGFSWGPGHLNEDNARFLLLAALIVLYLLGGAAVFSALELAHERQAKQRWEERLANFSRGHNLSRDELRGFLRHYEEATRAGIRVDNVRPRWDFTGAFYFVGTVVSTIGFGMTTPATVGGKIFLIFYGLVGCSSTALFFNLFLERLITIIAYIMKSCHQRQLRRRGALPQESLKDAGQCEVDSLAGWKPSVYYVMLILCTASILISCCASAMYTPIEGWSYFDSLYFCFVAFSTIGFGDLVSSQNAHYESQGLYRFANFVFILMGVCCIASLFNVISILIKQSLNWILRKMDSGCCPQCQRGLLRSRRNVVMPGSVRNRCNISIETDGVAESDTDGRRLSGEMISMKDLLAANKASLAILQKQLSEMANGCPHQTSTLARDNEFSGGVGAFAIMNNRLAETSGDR
As to the kind of experiment: Inside-out excised patch recordings, oocytes, THIK-1 Y273A/I139A double mutant. Particulars: for τ of 1 mM TPenA block / τ of 1 mM TPenA release: I139A/Y273A; for Normalized currents: THIK-1 Y273A/I139A. From the text: Human K2P13.1 THIK-1 (GenBank accession number: NM_022054) and human K2P12.1 THIK-2 (NM_022055.1) were used in this study. For functional expression studies, the respective K^+ channel subtype coding sequences were subcloned into the oocyte expression vector pSGEM or the dual-purpose expression vector pFAW[41] and verified by sequencing. All mutant channels were obtained by site-directed mutagenesis and verified by sequencing. To increase surface expression and macroscopic currents, measurements of THIK-2 channels used a mutated ER retention motif, (R11A R12A R14A R15A R16A; THIK-2*)[20]. Vector DNA was linearized with NheI or MluI, and mRNA was synthesized in vitro using the SP6 or T7 AmpliCap Max High Yield Message Maker Kit (Cellscript, USA) or HiScribe T7 ARCA mRNA Kit (New England Biolabs).
Two-electrode voltage–clamp (TEVC) studies were performed in Xenopus oocytes. All animal use conformed to the Guide for the Care and Use of Laboratory Animals (NIH Publication 85–23), and all experiments using Xenopus toads were approved by the local ethics panels. Oocytes were stored at 17 °C in ND96 recording solution composed of (in mM): 96 NaCl, 2 KCl, 1.8 CaCl2, 1 MgCl2, 5 HEPES (pH 7.5 adjusted with NaOH and HCl), supplemented with Na-pyruvate (275 mg L^–1), theophylline (90 mg L^–1) and gentamicin (50 mg L^–1). Oocytes were injected with 1 ng mRNA for WT or mutant channels, and were incubated for 24–48 h at 17 °C. Two-electrode voltage clamp recordings were then performed as previously described[42],[43]. For macroscopic patch–clamp measurements, oocytes were obtained as described above incubated at 17 °C in a solution containing (mM): 54 NaCl, 30 KCl, 2.4 NaHCO3, 0.82 MgSO4 ×7 H2O, 0.41 CaCl2, 0.33 Ca(NO3)2 ×4 H2O and 7.5 TRIS (pH 7.4 adjusted with NaOH and HCl) for 1–4 days before use. Excised patch recordings in inside-out configuration conditions were performed at room temperature. Patch pipettes were made from thick-walled borosilicate glass GB 200TF-8P (Science Products), had resistances of 0.2–0.5 MΩ (tip diameter, 10–25 µm) and filled with a pipette solution (in mM): 120 KCl, 10 HEPES and 3.6 CaCl2 (pH 7.4 adjusted with KOH and HCl). Intracellular bath solutions and compounds were applied to the cytoplasmic side of excised patches for the various K^+ channels through a gravity flow multi-barrel pipette system. The intracellular solution had the following composition (in mM): 120 KCl, 10 HEPES, 2 EGTA and 1 pyrophosphate (pH adjusted with KOH and HCl). Currents were recorded with an EPC10 amplifier (HEKA Electronics) and sampled at 10 kHz or higher, with filtering set to 3 kHz (–3 dB) or higher, as appropriate for sampling rate. For measurements of GPCR activation, whole-cell currents were recorded for THIK-1 in transiently transfected HEK-293 cells. Cells were stimulated by a ramp protocol between −100 and +60 mV (holding potential, −80 mV). The pipette solution was composed of (in mM): 140 KCl, 2 MgCl2, 1 CaCl2, 2.5 EGTA and 10 HEPES (pH 7.3 adjusted with KOH and HCl). The extracellular bath solution had the following composition (in mM): 135 NaCl, 5 KCl, 2 MgCl2, 2 CaCl2, 10 glucose and 10 HEPES pH (pH 7.3 adjusted with NaOH and HCl). Oxotremorine M (Oxo-M) was added to extracellular bath solution to obtain the final concentration. Single-channel currents were recorded with an Axopatch 200B amplifier through a Digidata 1440A digitizer (Molecular Devices). Data were filtered at 2 kHz and recorded at a 200-kHz sampling rate with the program Clampex (Molecular Devices). Pipette solution and bath solution for cell-attached recordings contained (in mM): 140 KCl, 2 MgCl2, 1 CaCl2 and 10 HEPES (pH 7.4 adjusted with KOH and HCl). For inside-out recordings, the bath solution contained (in mM): 140 KCl, 2 MgCl2, 1 CaCl2 and 10 HEPES (pH 7.2 adjusted with KOH and HCl). All experiments were conducted at room temperature. […]

Test [3] concerns the target T3, THIK-1 Y102A (Homo sapiens, UniProt Q9HB14, Y102A).
T3 construct: expressed in transfected cells; host or cells: Xenopus oocytes (mRNA injection)
As to the kind of experiment: Inside-out excised patch recordings, oocytes, THIK-1 Y102A mutant (lipid activation). Particulars: read-out: Linoleic acid EC50. From the text:
Supplement 41594_2025_1497_MOESM2_ESM.xlsx, sheet "ExtData_Fig_S5f" | column: Linoleic acid EC50 (µM); Y102A

Molecules are shown by their SMILES. pEC50, pIC50: −log10 of the molar value. Values joined by “and” are separate entries in the source; they are usually repeats but may differ in a detail not shown here. Equal values may be shown once. Read-outs that look alike come from different tables or passages of the source.

T3 sequence (Q9HB14 whole entry Y102A): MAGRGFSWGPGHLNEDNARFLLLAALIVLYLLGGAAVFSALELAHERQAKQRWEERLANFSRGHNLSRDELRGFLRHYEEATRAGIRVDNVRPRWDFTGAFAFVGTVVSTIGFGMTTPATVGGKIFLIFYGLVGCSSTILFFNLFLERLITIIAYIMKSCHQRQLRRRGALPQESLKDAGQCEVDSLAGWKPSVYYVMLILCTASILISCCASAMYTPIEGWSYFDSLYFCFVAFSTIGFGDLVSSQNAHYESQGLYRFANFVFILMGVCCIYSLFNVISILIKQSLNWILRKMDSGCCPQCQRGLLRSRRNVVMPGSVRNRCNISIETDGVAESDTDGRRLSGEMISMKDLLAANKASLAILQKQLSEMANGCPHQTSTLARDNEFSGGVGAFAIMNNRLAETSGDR
T1 sequence (Q9HB14 whole entry F142A): as the sequence (Q9HB14 whole entry Y102A) above, with A102Y, F142A counted along it

As to `CCCCC[N+](CCCCC)(CCCCC)CCCCC` [TPenA, tetrapentylammonium], the pIC50 in test [1] (individual recordings) is 3.62 and 3.73 and 3.30 and 3.43; in test [1] (mean), 3.49. Further, the “τ of 1 mM TPenA block” value in test [2] (individual recordings) is 0.121 s and 0.062 s and 0.131 s and 0.164 s and 0.120 s and 0.094 s and 0.191 s and 0.111 s and 0.116 s and 0.183 s and 0.093 s and 0.084 s and 0.142 s and 0.070 s and 0.095 s and 0.042 s; in test [2] (mean) it was 0.11 s. The “τ of 1 mM TPenA release” value in test [2] (individual recordings) was 0.960 s and 0.559 s and 1.130 s and 0.565 s and 0.799 s and 0.283 s and 0.914 s and 0.634 s and 0.842 s and 0.928 s and 0.662 s and 0.571 s and 0.449 s and 0.371 s and 1.055 s; in test [2] (mean), 0.71 s. Moreover, the Normalized currents was found to be 1.00 in test [2] (TPenA 0.1 µM); 0.95 in test [2] (TPenA 1 µM); 0.90 in test [2] (TPenA 4 µM); 0.68 in test [2] (TPenA 15.6 µM); 0.47 in test [2] (TPenA 62.5 µM); 0.22 in test [2] (TPenA 250 µM). The Normalized currents is given as 0.08 in test [2] (TPenA 1000 µM) and 0.03 in test [2] (TPenA 4000 µM).

In the case of `CCCCC/C=C\C/C=C\CCCCCCCC(=O)O` [linoleic acid], the pEC50 in test [3] (individual recordings) was 3.98 and 3.88 and 4.24 and 4.22 and 3.53 and 4.33 and 4.31 and 4.44; in test [3] (mean) it was 4.03.

The pIC50 is the IC50 on a negative log10 scale, so that one unit is a factor of ten. As usually defined, the pEC50 is the negative decadic logarithm of the EC50, by convention in mol/L.
